Data published in ChEMBL document CHEMBL4411258, “Novel natural compounds from endophytic fungi with anticancer activity” (Eur J Med Chem, 2018).
≈ marks a conversion by molar mass, not a printed value.

Tests used:
T47D = experiment: Cytotoxicity against human T47D cells after 48 hrs by MTT assay; assay type: functional, cell-based
[1] = Cytotoxicity against human Tca8113 cells after 72 hrs by MTT assay; assay type: functional, cell-based
MG-63 = experiment: Cytotoxicity against human MG63 cells after 72 hrs by MTT assay; assay type: functional, cell-based; conditions: MG-63, 72 h
Bel-7402 = experiment: Cytotoxicity against human Bel7402 cells after 48 hrs by MTT assay; assay type: functional, cell-based; conditions: Bel-7402, 48 h
HeLa [2] = experiment: Cytotoxicity against human HeLa cells after 48 hrs by MTT assay; assay type: functional, cell-based
[3] = Cytotoxicity against human KATO III cells after 72 hrs by MTT assay; assay type: functional, cell-based
NCI-H187 = experiment: Cytotoxicity against human NCI-H187 cells by resazurin microplate assay; assay type: functional, cell-based
Vero = experiment: Cytotoxicity against African green monkey Vero cells by resazurin microplate assay; assay type: cell-based; conditions: Chlorocebus sabaeus
MCF7 [4] = experiment: Cytotoxicity against human MCF7 cells by resazurin microplate assay; assay type: functional, cell-based
HL-60 [5] = experiment: Cytotoxicity against human HL60 cells after 48 hrs by MTT assay; assay type: functional, cell-based; conditions: HL-60, 48 h
BT-549 = experiment: Cytotoxicity against human BT549 cells after 48 hrs by neutral red dye based assay; assay type: functional, cell-based; conditions: BT-549, 48 h
SK-OV-3 = experiment: Cytotoxicity against human SKOV3 cells after 48 hrs by neutral red dye based assay; assay type: functional, cell-based; conditions: SK-OV-3, 48 h
KB [6] = experiment: Cytotoxicity against human KB cells after 48 hrs by neutral red dye based assay; assay type: functional, cell-based
A549 [7] = experiment: Cytotoxicity against human A549 cells by MTT assay; assay type: functional, cell-based
HeLa [8] = experiment: Cytotoxicity against human HeLa cells by MTT assay; assay type: functional, cell-based
HCT-116 = experiment: Cytotoxicity against human HCT116 cells by MTT assay; assay type: functional, cell-based
MOLT-3 = experiment: Cytotoxicity against human MOLT3 cells by XTT assay; assay type: functional, cell-based
HuCC-A1 = experiment: Cytotoxicity against human HuCCa1 cells by MTT assay; assay type: functional, cell-based
NCI-H460 = experiment: Cytotoxicity against human NCI-H460 cells; assay type: functional, cell-based
L5178Y = experiment: Cytotoxicity against mouse L5178Y cells by MTT assay; assay type: functional, cell-based
PC-12 = experiment: Cytotoxicity against rat PC12 cells by MTT assay; assay type: functional, cell-based
A549 [9] = experiment: Cytotoxicity against human A549 cells after 24 hrs by MTT assay; assay type: functional, cell-based; conditions: A549, 24 h
MKN-45 = experiment: Cytotoxicity against human MKN45 cells after 24 hrs by MTT assay; assay type: functional, cell-based; conditions: MKN-45, 24 h
LoVo = experiment: Cytotoxicity against human LoVo cells after 24 hrs by MTT assay; assay type: functional, cell-based
HL-60 [10] = experiment: Cytotoxicity against human HL60 cells after 24 hrs by MTT assay; assay type: functional, cell-based; conditions: HL-60, 24 h
SW480 = experiment: Cytotoxicity against human SW480 cells by MTT assay; assay type: functional, cell-based
[11] = Inhibition of TNFalpha-induced NFkappaB (unknown origin) activation expressed in HEK293 cells preincubated for 1 hr followed by TNFalpha stimulation and measured after 1 hr by dual luciferase reporter gene assay; assay type: cell-based; conditions: Homo sapiens
[12] = Inhibition of TNFalpha-induced NFkappaB (unknown origin) activation expressed in HEK293 cells after 6 hrs by luciferase reporter gene based assay; assay type: cell-based; conditions: Homo sapiens, HEK293, 6 h
MCF7 [13] = experiment: Cytotoxicity against human MCF7 cells after 48 hrs by MTT assay; assay type: functional, cell-based; conditions: mcf7
A549 [14] = experiment: Cytotoxicity against human A549 cells after 48 hrs by MTT assay; assay type: functional, cell-based; conditions: a549
SMMC-7721 = experiment: Cytotoxicity against human SMMC7721 cells after 48 hrs by MTT assay; assay type: functional, cell-based; conditions: smmc-7721
A2780 = experiment: Cytotoxicity against human A2780 cells after 72 hrs by MTT assay; assay type: functional, cell-based; conditions: A2780, 72 h
KB [15] = experiment: Cytotoxicity against human KB cells by resazurin microplate assay; assay type: functional, cell-based

In the case of `C=CC1=CC2=CC(=O)[C@](C)(OC(=O)/C=C/C(C)=C/[C@@H](C)CCCC)C(=O)C2=CO1`, the IC50 (T47D) is reported as 1 to 10 µM.

In the case of `CC(C)(O)C(O)COc1ccc(CCO)cc1` (configuration not stated), the IC50 [1] is reported as 26 µM and the IC50 (MG-63) is reported as 35 µM.

With `COC(=O)[C@]1(OC)CCC(=O)N1Nc1ccc(OC)cc1OC` the IC50 (Bel-7402) was 8.1 µM and the IC50 (HeLa [2]) was 15.5 µM.

For `C[C@H]1[C@@H](/C=C2\C=CC(=O)O2)[C@H]2C=CC=C[C@@H]1O2`, the IC50 [3] was 1.95 to 40.2 µg/mL (≈ 8.47 to 174 µM), the IC50 (NCI-H187) was 1.95 to 40.2 µg/mL (≈ 8.47 to 174 µM) and the IC50 (Vero) was 1.95 to 40.2 µg/mL (≈ 8.47 to 174 µM). For the same compound, the IC50 (MCF7 [4]) was 1.95 to 40.2 µg/mL (≈ 8.47 to 174 µM).

Work on `COc1ccc(O)c2c(=O)oc3cc(O)cc(C)c3c12` yielded an IC50 (HL-60 [5]) of 85 µM.

Work on `C=C(CC[C@@H](C)[C@H]1CC=C2C3=C([C@@H](O)[C@H](OC(C)=O)[C@@]21C)[C@@]1(C)C[C@@H](OC(C)=O)[C@H](OC(C)=O)C(C)(C)[C@@H]1CC3)C(C)C` yielded an IC50 (BT-549) of 1.82 µM, an IC50 (SK-OV-3) of 1.32 µM and an IC50 (KB [6]) of 0.18 µM.

For `CCCCc1c(OC)cc(=O)oc1C`, the IC50 (A549 [7]) was 38.7 µM, the IC50 (HeLa [8]) was 27 µM and the IC50 (HCT-116) was 45.1 µM.

`COCC1=C2C=C(C)OC=C2[C@H](O)[C@@](C)(O)C1=O` gave an IC50 (A549 [7]) of 46.5 µg/mL, an IC50 (MOLT-3) of 17.4 µg/mL (≈ 69 µM) and an IC50 (HuCC-A1) of 48.1 µg/mL (≈ 191 µM).

Compound `C=CC1(C)c2[nH]c3cc4c(cc3c2C[C@H]2C(=O)N3CCC[C@H]3C(=O)N21)C=CC(C)(C)O4` (some centres not stated) has an IC50 (NCI-H460) of 69.3 µM.

With `COc1cccc2c1C(=O)c1c(O)c3c(c(O)c1C2=O)C[C@@](O)(C(=O)CO)C[C@@H]3O[C@H]1C[C@H](N)[C@H](O)[C@H](C)O1` [DOXORUBICIN] the IC50 (L5178Y) was 4.6 µM and the IC50 (PC-12) was 5.71 µM.

`CCCC[C@H](O)C(=O)C/C(=C\C(=O)O)OC` gave an IC50 (A549 [9]) of less than 200 µM, an IC50 (MKN-45) of less than 200 µM and an IC50 (LoVo) of less than 200 µM. It also gave an IC50 (HL-60 [10]) of less than 200 µM.

For `CC1=C(C=O)[C@@]2(C)CCCC(C)(C)[C@@H]2C[C@@H]1O`, the IC50 (SW480) was 8.72 µM.

Work on `CC(=O)O[C@H]1C=CC(=O)O[C@H]1[C@H]1[C@H]2C=CC=C[C@](O)(O2)[C@H]1C` yielded an IC50 [3] of 1.95 to 40.2 µg/mL (≈ 6.37 to 131 µM), an IC50 (NCI-H187) of 1.95 to 40.2 µg/mL (≈ 6.37 to 131 µM) and an IC50 (Vero) of 1.95 to 40.2 µg/mL (≈ 6.37 to 131 µM). The IC50 (MCF7 [4]) was 1.95 to 40.2 µg/mL (≈ 6.37 to 131 µM).

For `CCCCCCCCCCC[C@@H](C)[C@@H]1CC(=O)N[C@@H]([C@H](C)O)C(=O)N[C@@H](C)C(=O)N[C@H](C)C(=O)N[C@@H](CCC(N)=O)C(=O)N[C@H](Cc2ccc(O)cc2)C(=O)N[C@@H]([C@@H](C)CC)C(=O)O1`, the IC50 (L5178Y) was 5.71 µM and the IC50 (PC-12) was 9.55 µM.

Compound `C[C@@H]1CO[C@@]2(O)[C@@H]1C[C@]1(C)[C@@H](C)CC[C@H](O)[C@@]13O[C@@H]23` has an IC50 [11] of 7.11 µM.

In the case of `C=C(CC[C@@H](C)[C@H]1CC=C2C3=C([C@@H](O)[C@H](OC(C)=O)[C@@]21C)[C@@]1(C)C[C@@H](O)[C@H](OC(=O)c2ccc(O)cc2)C(C)(C)[C@@H]1CC3)C(C)C`, the IC50 (BT-549) is reported as 2.46 µM, the IC50 (SK-OV-3) is reported as 3.01 µM and the IC50 (KB [6]) is reported as 2.54 µM.

`C[C@@H]1CC[C@@H]2[C@@H](C)C(=O)O[C@@H]2[C@@]12C=C(CO)CC2` showed an IC50 [1] of 10 µM and an IC50 (MG-63) of 0.055 µM.

`CCCCC[C@@H]1OC2=C(C(=O)N(OC)C2C[S@+]([O-])C[C@@H](O)C(=O)O)[C@H](O)[C@@]1(C)O` (some centres not stated) showed an IC50 [12] of 1.5 µM.

For `CCCCC[C@@H]1OC2=C(C(=O)N(OC)C2CSC[C@@H](O)C(=O)O)[C@H](O)[C@@]1(C)O` (some centres not stated), the IC50 [12] was 7.1 µM.

For `COc1cc(=O)oc2c1CO[C@@](C)(OC)[C@H]2C`, the IC50 (MCF7 [13]) was 17.7 µM, the IC50 (A549 [14]) was 17.5 µM and the IC50 (SMMC-7721) was 35.1 µM.

For `O=C1N[C@@]2(Cc3ccccc3O2)C(=O)N/C1=C\c1ccccc1O`, the IC50 (A2780) was 59 µM.

`COc1cc2oc(C)cc(=O)c2c(O)c1CC(C)c1ccco1` (configuration not stated) gave an IC50 (KB [15]) of 43 µg/mL (≈ 137 µM) and an IC50 (NCI-H187) of 18 µg/mL (≈ 57.3 µM).
